Test results taken from US7643943B2, “Methods for monitoring drug activities in vivo” (Wyeth LLC, priority 2003, dated 2010).

[1] = CCI-779 final population model, whole blood, RCC patients
[2] = CCI-779 model, 1,000 bootstrap sample runs
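Note: population pharmacokinetic analysis in NONMEM of pooled full and sparse blood sampling from patients, exponential error on kinetic parameters, proportional residual error, bootstrap check over 1,000 resamples.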

Procedure: In a randomized, double-blind, multicenter trial, once-weekly intravenous doses of 25-, 75-, or 250-mg of CCI-779 were administered to patients with advanced renal cancer that were either previously treated, or untreated and not appropriate candidates for high dose interlukin-2 therapy. Whole blood for CCI-779 and metabolite concentrations was drawn for population pharmacokinetic analysis, and Bayesian-predicted area under the concentration-time curves for parent drug (AUC), parent plus metabolite (AUCsum), and cumulative AUC and AUCsum were derived.
For CCI-779 clearance, factors for dose, attenuation of exposure with multiple-dose, and effect of body surface area were included.
The following examples were based on a randomized, double-blind, multicenter, outpatient phase 2 study of CCI-779 administered by 30 minute intravenous infusion (via an automatic dispensing pump) in patients with advanced RCC. Eligible patients were randomly assigned to treatment in a 1:1:1 ratio to receive 25 mg, 75 mg, or 250 mg of CCI-779 weekly until evidence of disease progression.
Full pharmacokinetic profiling was planned in a subset of patients, with remaining patients to provide sparse sampling.
The bioanalytical method for CCI-779 was performed using whole blood in a liquid chromatography/tandem mass spectrometry (LC/MS/MS) procedure with deuterated internal standard.
In order to characterize the pharmacokinetic profiles of patients providing sparse blood sampling, fully and sparsely sampled patient data were analyzed collectively using a population pharmacokinetic method and the NONMEM application (version 1.0, Revision 5.0 on Windows NT 4.0 computer with Pentium processor, NONMEM Project Group, University of California at San Francisco, Calif.). […] Data were therefore modeled separately and segregated by analyte into two separate data sets with dose, time/duration of administration, and demographic information. […] Construction of the NONMEM infile was performed using SAS (version 8.1) on a Sun Microsystems mainframe computer with Sun OS 5.8. […] In both cases, the model-derived value for AUC for a given patient and analyte were obtained from the quotient of CCI-779 Dose/Clearance (CL), in which CL was obtained from Bayesian estimation and the POSTHOC option of NONMEM.
During model building, an exponential error model was applied to the kinetic model.

Inter-Patient Variability % on CL (CCI-779 final population model): 23.7%
Inter-Patient Variability % on V2 (CCI-779 final population model): 44.1%
Inter-Patient Variability % on V3 (CCI-779 final population model): 129%
Intersubject variability on CL (ω^21), final model parameter estimate (CCI-779 final population model): 0.056
Intersubject variability on V2 (ω^22), final model parameter estimate (CCI-779 final population model): 0.194
Intersubject variability on V3 (ω^23), final model parameter estimate (CCI-779 final population model): 1.67
Proportional error (ε^2), final model parameter estimate (CCI-779 final population model): 0.157
V1 (θ2), parameter estimate [1]: 37.6 L
V2 (θ4), parameter estimate [1]: 271 L
V3 (θ6), parameter estimate [1]: 323 L
Q2 (θ3), parameter estimate (CCI-779 final population model, TVQ2=6.48*DOSE^0.551): 6.48 L/h
Q3 (θ5), parameter estimate (CCI-779 final population model, TVQ3=0.258*DOSE^0.551): 0.258 L/h
INTR, inter-period variability on CL (θ8), parameter estimate (CCI-779 final population model, factor for multiple doses (DNUM=1)): 0.103
Inter-period variability on CL (θ8), bootstrap sample median [2]: 0.110
Intersubject variability on CL (ω^21), bootstrap sample median [2]: 0.215
Intersubject variability on V2 (ω^22), bootstrap sample median [2]: 0.414
Intersubject variability on V3 (ω^23), bootstrap sample median [2]: 1.08
Proportional error (ε^2), bootstrap sample median [2]: 0.383
Q2 (θ3), bootstrap sample median [2]: 6.46 L/h
Q3 (θ5), bootstrap sample median [2]: 0.267 L/h
V1 (θ2), bootstrap sample median [2]: 38.3 L
V2 (θ4), bootstrap sample median [2]: 275 L
V3 (θ6), bootstrap sample median [2]: 339 L
increase of clearance with BSA (for a given dose, patients with BSA values that range from 1.5 to 2 m^2): approximately 45%
SMILES: CO[C@H]1C[C@@H]2CC[C@@H](C)[C@@](O)(O2)C(=O)C(=O)N2CCCC[C@H]2C(=O)O[C@H]([C@H](C)C[C@@H]2CC[C@@H](OC(=O)C(C)(CO)CO)[C@H](OC)C2)CC(=O)[C@H](C)/C=C(\C)[C@@H](O)[C@@H](OC)C(=O)[C@H](C)C[C@H](C)/C=C/C=C/C=C/1C [CCI-779]
